The record followed here is patent US20130089624A1, “Compounds Useful as Inhibitors of ATR Kinase” (VERTEX PHARMACEUTICALS INCORPORATED, priority 2011, published 2013).

Series [1] can be described thus: Pharmacokinetics, noncompartmental parameters following intravenous (IV) dosing. The settings on record: in vivo. As for the experimental part:
Noncompartmental pharmacokinetic parameters were analyzed using Watson Bioanalytical LIMS (Version 7.4; Thermo Fisher Scientific) from either the blood or plasma samples. The following parameters were estimated following intravenous (IV) dosing; terminal elimination half-life (T1/2=ln(2)/λz, where λz is the first order rate constant associated with the terminal (log-linear) portion of the curve.
The area under the curve (AUClast=area under the curve from the time of dosing to the last measurable concentration). The area under the curve extrapolated to infinity (AUC0-∞=AUClast+Clast/λz). The clearance (Cl; Cl=DoseIV/AUC0-∞). The area under the first moment curve (AUMClast=area under the concentration times time versus time curve from the time of dosing to the last measurable concentration). The area under the first moment curve extrapolated to infinity (AUMC0-∞=AUMClast+Clast×t/λz+Clast/λz^2). The mean residence time (MRT=AUMC0-∞/AUC0-∞) and the steady state volume of distribution (Vdss=MRT×Cl).
Clearance and volume of distribution can also be obtained using methods known to one of skill in the art (see e.g., Handbook of Essential Pharmacokinetics, Pharmacodynamics and Drug Metabolism for Industrial Scientists, Younggil Kwon, pp 18-28 (Non-compartmental Approach)).

For another series, the target named is full-length ATR (Homo sapiens (Human), UniProt Q13535). Put plainly: ATR Inhibition Assay (radioactive-phosphate incorporation). It is filed as biochemical. The settings on record: Ki(app); 5 nM full-length ATR, 10 μM ATP, 25° C. As for the experimental part: Compounds were screened for their ability to inhibit ATR kinase using a radioactive-phosphate incorporation assay. Assays were carried out in a mixture of 50 mM Tris/HCl (pH 7.5), 10 mM MgCl2 and 1 mM DTT. Final substrate concentrations were 10 μM [γ-33P]ATP (3mCi 33P ATP/mmol ATP, Perkin Elmer) and 800 μM target peptide (ASELPASQPQPFSAKKK).
Assays were carried out at 25° C. in the presence of 5 nM full-length ATR. An assay stock buffer solution was prepared containing all of the reagents listed above, with the exception of ATP and the test compound of interest. 13.5 μL of the stock solution was placed in a 96 well plate followed by addition of 2 μL of DMSO stock containing serial dilutions of the test compound (typically starting from a final concentration of 15 μM with 3-fold serial dilutions) in duplicate (final DMSO concentration 7%). The plate was pre-incubated for 10 minutes at 25° C. and the reaction initiated by addition of 15 μL [γ-33P]ATP (final concentration 10 μM).
The reaction was stopped after […] by the addition of 30 μL 0.1M phosphoric acid containing 2 mM ATP. […]
After removing mean background values for all of the data points, Ki(app) data were calculated from non-linear regression analysis of the initial rate data using the Prism software package (GraphPad Prism version 3.0cx for Macintosh, GraphPad Software, San Diego Calif., USA).

Series [2] concerns HCT116 colorectal cancer cells. Description: Single Agent HCT116 Activity, 96 h cell viability (MTS) assay. It is filed as cell-based. The settings on record: Homo sapiens, HCT-116, 96 h MTS, read-out: Single agent HT116 IC50. How it is done: Compounds can be screened for single agent activity against HCT116 colorectal cancer cells using a 96 h cell viability (MTS) assay. HCT116 are plated at 470 cells per well in 96-well polystyrene plates (Costar 3596) in 150 μl of McCoy's 5A media (Sigma M8403) supplemented with 10% foetal bovine serum (JRH Biosciences 12003), Penicillin/Streptomycin solution diluted 1:100 (Sigma P7539), and 2 mM L-glumtamine (Sigma G7513), and allowed to adhere overnight at 37° C. in 5% CO2. Compounds are then added to the cell media in 2-fold serial dilutions from a top final concentration of 10 μM as a full matrix of concentrations in a final cell volume of 200 μl, and the cells are then incubated at 37° C. in 5% CO2. After 96 h, 40 μl of MTS reagent (Promega G358a) is added to each well and the cells are incubated for 1 h at 37° C. in 5% CO2. Finally, absorbance is measured at 490 nm using a SpectraMax Plus 384 reader (Molecular Devices) and IC50 values can be calculated.

In another series the target is intracellular ATR (Homo sapiens (Human), UniProt Q13535). Put plainly: Cellular ATR Inhibition Assay (phosphorylation of histone H2AX in hydroxyurea treated HT29 cells). It is filed as cell-based. To be noted: phosphorylated H2AX Ser139 in HT29 cells, 2 mM hydroxyurea; read-out: ATR biomarker IC50. How it is done: Compounds can be screened for their ability to inhibit intracellular ATR using an immunofluorescence microscopy assay to detect phosphorylation of the ATR substrate histone H2AX in hydroxyurea treated cells. HT29 cells are plated at 14,000 cells per well in 96-well black imaging plates (BD 353219) in McCoy's 5A media (Sigma M8403) supplemented with 10% foetal bovine serum (JRH Biosciences 12003), Penicillin/Streptomycin solution diluted 1:100 (Sigma P7539), and 2 mM L-glumtamine (Sigma G7513), and allowed to adhere overnight at 37° C. in 5% CO2. Compounds are then added to the cell media from a final concentration of 25 μM in 3-fold serial dilutions and the cells are incubated at 37° C. in 5% CO2. […]
Cells are imaged for Alexa Fluor 488 and Hoechst intensity using the BD Pathway 855 Bioimager and Attovision software (BD Biosciences, Version 1.6/855) to quantify phosphorylated H2AX Ser139 and DNA staining, respectively. The percentage of phosphorylated H2AX-positive nuclei in a montage of 9 images at 20× magnification is then calculated for each well using BD Image Data Explorer software (BD Biosciences Version 2.2.15). […] The percentage of H2AX positive nuclei is finally plotted against concentration for each compound and IC50s for intracellular ATR inhibition are determined using Prism software (GraphPad Prism version 3.0cx for Macintosh, GraphPad Software, San Diego Calif., USA).

In series [3] the test system is HCT116 colorectal cancer cells. Description: Cisplatin Sensitization Assay, 96 h cell viability (MTS) assay. To be noted: concentration of compound required to reduce the IC50 of Cisplatin alone by at least 3-fold; HCT116, 96 h MTS. It is filed as cell-based. How it is done: Compounds can be screened for their ability to sensitize HCT116 colorectal cancer cells to Cisplatin using a 96 h cell viability (MTS) assay. […] Compounds and Cisplatin are then both added simultaneously to the cell media in 2-fold serial dilutions from a top final concentration of 10 μM as a full matrix of concentrations in a final cell volume of 200 μl, and the cells are then incubated at 37° C. in 5% CO2. After 96 h, 40 μl of MTS reagent (Promega G358a) is added to each well and the cells are incubated for 1 h at 37° C. in 5% CO2. Finally, absorbance is measured at 490 nm using a SpectraMax Plus 384 reader (Molecular Devices) and the concentration of compound required to reduce the IC50 of Cisplatin alone by at least 3-fold (to 1 decimal place) can be reported.

Chain of full-length ATR (Q13535 whole entry): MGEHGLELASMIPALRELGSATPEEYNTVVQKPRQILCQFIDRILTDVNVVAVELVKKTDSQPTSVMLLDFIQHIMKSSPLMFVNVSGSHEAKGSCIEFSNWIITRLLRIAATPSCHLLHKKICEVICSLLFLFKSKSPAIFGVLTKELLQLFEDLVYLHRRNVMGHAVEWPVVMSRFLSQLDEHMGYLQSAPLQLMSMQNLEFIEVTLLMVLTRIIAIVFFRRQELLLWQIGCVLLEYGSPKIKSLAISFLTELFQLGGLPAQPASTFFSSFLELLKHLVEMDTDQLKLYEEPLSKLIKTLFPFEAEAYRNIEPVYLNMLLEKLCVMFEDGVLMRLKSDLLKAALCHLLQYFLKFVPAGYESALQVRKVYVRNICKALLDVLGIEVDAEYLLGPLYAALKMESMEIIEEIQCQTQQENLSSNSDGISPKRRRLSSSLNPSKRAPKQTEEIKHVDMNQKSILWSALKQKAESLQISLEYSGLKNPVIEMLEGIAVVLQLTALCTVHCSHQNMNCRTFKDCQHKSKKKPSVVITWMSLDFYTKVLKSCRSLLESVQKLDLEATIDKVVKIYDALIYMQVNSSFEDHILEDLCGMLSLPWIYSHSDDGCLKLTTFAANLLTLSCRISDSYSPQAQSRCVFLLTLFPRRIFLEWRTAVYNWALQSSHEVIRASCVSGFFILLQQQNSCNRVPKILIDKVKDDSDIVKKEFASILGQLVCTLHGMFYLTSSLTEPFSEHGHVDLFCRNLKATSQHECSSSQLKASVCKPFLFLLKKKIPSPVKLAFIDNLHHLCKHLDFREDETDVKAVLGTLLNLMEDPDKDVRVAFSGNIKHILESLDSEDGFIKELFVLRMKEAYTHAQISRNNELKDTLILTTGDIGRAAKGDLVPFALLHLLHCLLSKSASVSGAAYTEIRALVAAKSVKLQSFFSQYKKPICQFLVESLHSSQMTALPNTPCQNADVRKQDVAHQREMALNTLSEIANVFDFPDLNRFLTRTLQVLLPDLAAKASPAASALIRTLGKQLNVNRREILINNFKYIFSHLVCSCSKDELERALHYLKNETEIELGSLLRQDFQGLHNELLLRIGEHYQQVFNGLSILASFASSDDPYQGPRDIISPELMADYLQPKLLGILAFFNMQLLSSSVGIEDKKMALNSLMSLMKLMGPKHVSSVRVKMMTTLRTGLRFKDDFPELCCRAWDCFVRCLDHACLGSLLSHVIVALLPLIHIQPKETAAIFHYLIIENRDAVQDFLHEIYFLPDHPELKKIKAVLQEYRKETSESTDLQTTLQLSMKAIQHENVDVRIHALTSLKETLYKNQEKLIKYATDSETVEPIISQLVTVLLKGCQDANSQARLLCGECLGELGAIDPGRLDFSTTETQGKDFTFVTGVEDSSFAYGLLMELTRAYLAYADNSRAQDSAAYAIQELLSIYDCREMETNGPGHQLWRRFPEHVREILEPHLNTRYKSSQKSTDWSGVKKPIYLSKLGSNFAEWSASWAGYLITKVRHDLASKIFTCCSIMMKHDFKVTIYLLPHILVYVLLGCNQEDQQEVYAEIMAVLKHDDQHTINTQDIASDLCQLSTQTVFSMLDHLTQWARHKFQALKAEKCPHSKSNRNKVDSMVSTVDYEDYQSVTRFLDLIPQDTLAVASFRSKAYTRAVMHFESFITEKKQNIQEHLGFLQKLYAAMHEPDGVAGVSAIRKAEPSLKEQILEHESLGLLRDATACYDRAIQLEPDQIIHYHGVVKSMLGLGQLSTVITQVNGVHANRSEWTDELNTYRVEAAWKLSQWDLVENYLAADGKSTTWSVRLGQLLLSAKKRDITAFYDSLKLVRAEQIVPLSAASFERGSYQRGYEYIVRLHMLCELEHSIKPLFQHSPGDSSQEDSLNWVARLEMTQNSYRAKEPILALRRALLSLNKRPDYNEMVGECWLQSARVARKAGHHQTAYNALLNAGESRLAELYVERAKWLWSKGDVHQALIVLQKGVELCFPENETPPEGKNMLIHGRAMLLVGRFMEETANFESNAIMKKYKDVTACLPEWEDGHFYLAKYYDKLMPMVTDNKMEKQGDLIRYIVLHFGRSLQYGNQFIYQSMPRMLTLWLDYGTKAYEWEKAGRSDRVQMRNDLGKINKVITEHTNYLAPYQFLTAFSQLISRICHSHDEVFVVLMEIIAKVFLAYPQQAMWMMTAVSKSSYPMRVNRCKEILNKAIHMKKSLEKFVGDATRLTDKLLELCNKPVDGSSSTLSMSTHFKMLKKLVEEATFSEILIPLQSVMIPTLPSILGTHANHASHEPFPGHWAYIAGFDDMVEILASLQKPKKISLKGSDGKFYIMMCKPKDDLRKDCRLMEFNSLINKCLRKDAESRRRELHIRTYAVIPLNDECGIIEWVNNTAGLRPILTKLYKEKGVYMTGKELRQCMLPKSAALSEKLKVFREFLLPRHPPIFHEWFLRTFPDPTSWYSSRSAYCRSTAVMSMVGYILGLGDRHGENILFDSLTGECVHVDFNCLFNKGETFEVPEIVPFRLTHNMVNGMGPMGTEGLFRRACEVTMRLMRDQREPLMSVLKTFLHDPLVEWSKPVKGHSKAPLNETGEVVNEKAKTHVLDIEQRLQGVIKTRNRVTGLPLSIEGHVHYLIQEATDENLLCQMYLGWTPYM
Chain of intracellular ATR (Q13535 whole entry): as above
Chain of intracellular ATR (Q8WXE1 whole entry partner): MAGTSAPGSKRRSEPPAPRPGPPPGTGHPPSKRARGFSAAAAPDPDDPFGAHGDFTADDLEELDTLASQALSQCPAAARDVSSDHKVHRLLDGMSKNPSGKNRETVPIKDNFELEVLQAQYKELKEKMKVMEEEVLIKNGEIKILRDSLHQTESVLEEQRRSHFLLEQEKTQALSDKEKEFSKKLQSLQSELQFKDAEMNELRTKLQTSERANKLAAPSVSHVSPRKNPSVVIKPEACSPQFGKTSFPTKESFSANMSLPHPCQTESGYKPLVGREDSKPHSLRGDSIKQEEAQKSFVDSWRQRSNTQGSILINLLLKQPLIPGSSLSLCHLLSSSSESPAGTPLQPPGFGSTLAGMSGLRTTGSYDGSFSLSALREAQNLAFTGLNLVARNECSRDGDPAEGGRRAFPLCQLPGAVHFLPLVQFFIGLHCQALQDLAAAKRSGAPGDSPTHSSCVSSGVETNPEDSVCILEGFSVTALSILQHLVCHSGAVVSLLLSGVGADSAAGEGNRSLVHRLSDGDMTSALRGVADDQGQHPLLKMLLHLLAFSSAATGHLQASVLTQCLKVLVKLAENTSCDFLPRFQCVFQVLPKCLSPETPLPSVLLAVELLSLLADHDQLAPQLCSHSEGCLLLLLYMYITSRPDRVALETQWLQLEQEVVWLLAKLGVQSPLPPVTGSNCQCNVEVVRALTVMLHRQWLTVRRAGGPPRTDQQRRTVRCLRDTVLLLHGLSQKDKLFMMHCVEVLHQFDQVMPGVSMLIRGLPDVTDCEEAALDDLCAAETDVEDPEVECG

One may read the clearance as a measure of how efficiently the substance is removed, as volume per time. A lower clearance goes with inefficient removal. One may read the IC50 as the concentration needed to halve the response being measured. `CC(C)S(=O)(=O)c1ccc(-c2cnc(N)c(-c3cc(-c4ccc([C@@H]5COCCN5)cc4)no3)n2)cc1` [I, 5-(4-isopropylsulfonylphenyl)-3-[3-[4-[(3R)-morpholin-3-yl]phenyl]isoxazol-5-yl]pyrazin-2-amine] displayed a clearance in series [1] (blood or plasma samples) of 3.5 mL/min/kg. In series [1] (steady state volume of distribution, read-out: VSS), the Vd amounted to 1.1 L/kg. In addition, the Ki at full-length ATR amounted to 0.503 nM. Further, the IC50 in series [2] was determined as 365 nM; on intracellular ATR, 200 nM. For the same compound, the Cisplatin sensitization in series [3] turned out to be 117 nM.
